Legend:
Format in all cases: cell-based
ACKR3 [1] = molecular target: T1, ACKR3 (Homo sapiens, UniProt P25106); assay: ACKR3 β-arrestin recruitment assay (PathHunter, β-galactosidase complementation); conditions: for Emax: read-out: ACKR3 β-arrestin % CXCL12 Emax ± SEM; for EC50: stable human ACKR3-β-arrestin-2-CHO cells, mean ± SEM, at least two independent experiments in duplicate
Procedure, shortened: (§1)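 Agonist mode in PathHunter CHO cells expressing human ACKR3-β-arrestin-2, compounds added in DPBS/1% DMSO for 1.5 hr at 37° C, then detection 1 hr at room temperature, luminescence read. CXCR4 run in C2C12 cells with a 3 hr Cell Plating Reagent 4 preincubation. EC50 and % Emax from three-parameter fits, CXCL-12 as reference agonist; ≥2 independent experiments in duplicate.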

human CXCR4 = molecular target: T2, human CXCR4 (Homo sapiens, UniProt P61073); assay: CXCR4 β-arrestin recruitment assay (PathHunter); conditions: human CXCR4-C2Cl2 cells, relative to CXCL-12
T2 construct: host or cells: C2C12
T2 sequence (P61073 whole entry): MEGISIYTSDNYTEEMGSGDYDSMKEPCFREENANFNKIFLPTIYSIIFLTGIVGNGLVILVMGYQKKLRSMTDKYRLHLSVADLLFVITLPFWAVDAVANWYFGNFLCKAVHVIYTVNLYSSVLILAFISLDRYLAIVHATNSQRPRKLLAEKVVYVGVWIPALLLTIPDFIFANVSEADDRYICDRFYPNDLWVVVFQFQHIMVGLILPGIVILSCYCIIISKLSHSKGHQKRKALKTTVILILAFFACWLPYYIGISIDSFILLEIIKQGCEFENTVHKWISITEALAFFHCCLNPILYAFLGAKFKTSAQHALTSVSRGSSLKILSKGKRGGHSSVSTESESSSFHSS
Procedure, shortened: as §1

MOR = MOR (Homo sapiens, UniProt P35372); assay: NanoBiT-based β-arrestin-2 recruitment assay, MOR; design: expressed in transfected cells; host or cells: U87; conditions: concentration range 0.15 nM to 80 μM; reference BAM22
Chain of MOR (P35372 whole entry): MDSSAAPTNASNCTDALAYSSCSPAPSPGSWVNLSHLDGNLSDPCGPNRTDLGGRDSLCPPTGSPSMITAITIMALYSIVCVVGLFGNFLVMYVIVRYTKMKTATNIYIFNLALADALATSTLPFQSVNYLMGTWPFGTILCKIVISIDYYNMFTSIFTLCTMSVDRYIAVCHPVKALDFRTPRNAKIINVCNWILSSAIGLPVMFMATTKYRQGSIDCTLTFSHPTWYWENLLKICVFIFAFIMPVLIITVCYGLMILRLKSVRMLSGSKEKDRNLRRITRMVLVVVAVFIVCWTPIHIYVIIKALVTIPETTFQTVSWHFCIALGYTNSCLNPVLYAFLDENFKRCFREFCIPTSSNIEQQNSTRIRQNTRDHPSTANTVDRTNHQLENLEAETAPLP
Procedure: (§2) The ability of the different molecules to activate the four opioid receptors MOR, DOR, KOR and NOP that are known to mediate in vivo analgesic effects was tested using the NanoBiT-based β-arrestin-2 recruitment assay in a concentration range of 0.15 nM to 80 μM. For each of these receptors a reference ligand corresponding to an endogenous opioid peptide i.e. Met-enkephalin, BAM22, Dynorphin A and Nociceptin, respectively was included.
(§3) Ligand-induced β-arrestin recruitment to chemokine and opioid receptors was monitored by NanoLuc complementation assay (NanoBiT, Promega). In brief, 1.2×10^6 U87 cells were plated in 10-cm culture dishes and 48 hours later co-transfected with pNBe vectors encoding GPCRs (ACKR3, MOR, DOR, KOR, or NOP) C-terminally tagged with SmBiT and human β-arrestin-1 (arrestin-2) or β-arrestin-2 (arrestin-3) N-terminally fused to LgBiT. 48 hours post-transfection cells were harvested, incubated 25 minutes at 37° C. with Nano-Glo Live Cell substrate diluted 200-fold and distributed into white 96-well plates (5×10^4 cells per well). Ligand-induced, β-arrestin to GPCRs was evaluated with a Mithras LB940 luminometer (Berthold Technologies, running on MicroWin 2010 5.19 software (Mikrotek Laborsysteme)) for 20 minutes.
(§4) For concentration-response curves (FIG. 2), the signal recorded with a saturating concentration of full agonist for each receptor was set as 100%. […]

KOR = KOR (Homo sapiens, UniProt P41145); assay: NanoBiT-based β-arrestin recruitment assay, KOR; design: expressed in transfected cells; host or cells: U87; conditions: concentration range 0.15 nM to 80 μM; reference Dynorphin A
Chain of KOR (P41145 whole entry): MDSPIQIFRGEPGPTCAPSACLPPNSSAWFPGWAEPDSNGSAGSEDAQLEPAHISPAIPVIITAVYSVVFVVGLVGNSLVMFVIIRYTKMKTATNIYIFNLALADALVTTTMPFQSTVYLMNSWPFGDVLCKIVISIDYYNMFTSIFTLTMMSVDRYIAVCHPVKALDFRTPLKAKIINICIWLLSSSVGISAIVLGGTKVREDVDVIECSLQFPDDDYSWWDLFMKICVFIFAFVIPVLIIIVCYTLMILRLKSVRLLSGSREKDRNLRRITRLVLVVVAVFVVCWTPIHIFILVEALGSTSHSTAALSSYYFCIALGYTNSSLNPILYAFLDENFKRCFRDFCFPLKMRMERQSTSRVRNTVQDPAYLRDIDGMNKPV
Procedure: as §2, §3, §4

ACKR3 [2] = molecular target: T1, ACKR3; assay: ACKR3 internalization assay by flow cytometry in U87-ACKR3 cells; design: expressed in transfected cells; host or cells: U87-ACKR3 (ACKR3-negative U87 as control); conditions: 45 minutes at 37° C., anti-ACKR3 mAb 11G8, FIG. 6 section A
Procedure: For determination of receptor surface expression levels by flow cytometry, U87-ACKR3 cells were stimulated with WW-1 or WW-12 (50, 10, 5 1 μM) or BAM22 or ctrl peptides (1 μM) for 45 minutes at 37° C. The remaining surface-bound ligands were then removed by a brief wash with 150 mM NaCl, 50 mM glycine, pH 3 and twice with FACS buffer. Cell surface levels of ACKR3 were then measured by flow cytometry using a saturating concentration of receptor-specific mAb (clones 11G8) and a secondary phycoerythrin-conjugated F(ab′)2 fragment anti-mouse IgG (Jackson ImmunoResearch). Dead cells were excluded using the Zombie NIR fixable viability dye (BioLegend, catalog #423106, dilution 1:2000). Mean fluorescence intensity was quantified on a Novocyte Quanteon flow cytometer (ACEA Biosciences) using NovoExpress 1.4.1 (ACEA Biosciences).

ACKR3 [3] = molecular target: T1, ACKR3; assay: Ligand-induced ACKR3 delivery to early endosomes (NanoBRET, U87 cells); design: expressed in transfected cells; host or cells: U87-ACKR3 (ACKR3-negative U87 as control); conditions: ACKR3-Nanoluciferase / FYVE-mNeonGreen, FIG. 6 section B
Procedure: Ligand-induced receptor-arrestin delivery to early endosomes was monitored by NanoBRET. In brief, 1.2×10^6 U87 cells were seeded in 10-cm dishes and co-transfected with plasmids encoding ACKR3, C-terminally tagged with Nanoluciferase and FYVE domain of endofin interacting with phosphatidylinositol 3-phosphate (PI3P) in early endosomes46,47, N-terminally tagged with mNeonGreen. 48h post-transfection, cells were distributed into black 96-well plates (1×10^5 cells per well) and treated with full-length or processed chemokines. After 2-hour incubation at 37° C., coelenterazine H (10 μM) was added and donor emission (460 nm) and acceptor emission (535 nm) were immediately measured on a GloMax plate reader (Promega).

T1 sequence (P25106 whole entry): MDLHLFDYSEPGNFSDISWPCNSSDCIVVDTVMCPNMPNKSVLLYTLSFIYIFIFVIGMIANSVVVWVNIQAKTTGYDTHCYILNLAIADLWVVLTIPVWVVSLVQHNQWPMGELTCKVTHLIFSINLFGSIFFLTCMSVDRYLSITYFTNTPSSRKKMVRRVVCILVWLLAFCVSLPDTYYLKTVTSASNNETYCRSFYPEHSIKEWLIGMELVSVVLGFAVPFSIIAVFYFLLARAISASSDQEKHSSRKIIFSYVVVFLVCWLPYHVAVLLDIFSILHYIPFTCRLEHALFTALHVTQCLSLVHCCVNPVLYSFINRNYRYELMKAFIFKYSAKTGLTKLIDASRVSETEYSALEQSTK

## C/C=C1/CN2CC[C@H]1C(=O)c1[nH]c3ccccc3c1C2 [WW-1, (4E,5R)-4-ethylidene-1,4,5,7-tetrahydro-2,5-ethanoazocino[4,3-b]indol-6(3H)-one]
ACKR3 [1]
  Emax: 181 ± 4%
  EC50: 27.3 ± 0.44 µM
Human CXCR4
  CXCR4 β-arrestin % CXCL-12Emax (n = 2): 3%
MOR
  activation of MOR (β-arrestin-2 recruitment): not active
KOR
  activation of KOR (β-arrestin recruitment): not active
ACKR3 [2]
  ACKR3 internalization from the plasma membrane: able to induce receptor internalization
ACKR3 [3]
  ACKR3 delivery to the endosomes: delivery to the endosomes

## C/C=C1/CN(CCCCC)CC[C@H]1C(=O)c1cc2ccccc2[nH]1 [WW-12, [(3E,4R)-3-ethylidene-1-pentylpiperidin-4-yl](1H-indol-2-yl)methanone]
ACKR3 [1]
  Emax: 140 ± 11%
  EC50: 0.353 ± 0.019 µM
Human CXCR4
  CXCR4 β-arrestin % CXCL-12Emax (n = 2): 4%
MOR
  activation of MOR (β-arrestin-2 recruitment): not active
KOR
  activation of KOR (β-arrestin recruitment): not active
ACKR3 [2]
  ACKR3 internalization from the plasma membrane: able to induce receptor internalization
ACKR3 [3]
  ACKR3 delivery to the endosomes: delivery to the endosomes

— patent US20240059688A1, “CONOLIDINE ANALOGUES AS SELECTIVE ACKR3 MODULATORS FOR THE TREATMENT OF CANCER” (Luxembourg Institute of Health (LIH), priority 2020, published 2024)
